This note sets out measurements from ChEMBL document CHEMBL1128031, “The design of dipeptide helical mimetics: the synthesis and biological activity of trisubstituted indanes” (Bioorg Med Chem Lett, 1994).

One assay has as its target Substance-P receptor (Homo sapiens, UniProt P25103). Kind of assay: Inhibition of [125I]BH-SP binding to tachykinin NK1 receptor in human IM-9 cells. The format is cell-based.
For another assay, the target named is T1, Neuromedin-K receptor (Homo sapiens, UniProt P29371).
T1 sequence (P29371 whole entry): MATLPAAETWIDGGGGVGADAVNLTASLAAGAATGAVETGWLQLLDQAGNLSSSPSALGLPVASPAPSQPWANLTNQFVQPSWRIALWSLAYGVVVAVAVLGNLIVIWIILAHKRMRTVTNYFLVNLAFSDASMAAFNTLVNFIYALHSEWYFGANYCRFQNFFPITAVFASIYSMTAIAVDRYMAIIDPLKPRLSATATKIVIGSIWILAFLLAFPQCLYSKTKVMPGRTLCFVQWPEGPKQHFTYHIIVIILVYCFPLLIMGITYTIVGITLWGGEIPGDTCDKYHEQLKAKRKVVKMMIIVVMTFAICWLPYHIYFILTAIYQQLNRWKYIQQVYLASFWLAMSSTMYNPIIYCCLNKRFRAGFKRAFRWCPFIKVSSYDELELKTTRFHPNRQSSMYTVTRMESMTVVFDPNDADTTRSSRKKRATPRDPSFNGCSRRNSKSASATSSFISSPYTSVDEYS
Kind of assay: Inhibition of [125I][MePhe]-NKB binding to human Tachykinin receptor 3 in CHO cells. The format is cell-based.

Molecules are shown by their SMILES. Peptide text beside a SMILES is read from it. * marks the point of attachment. Cbz = O=C(OCc1ccccc1)*

Chain of Substance-P receptor (P25103 whole entry): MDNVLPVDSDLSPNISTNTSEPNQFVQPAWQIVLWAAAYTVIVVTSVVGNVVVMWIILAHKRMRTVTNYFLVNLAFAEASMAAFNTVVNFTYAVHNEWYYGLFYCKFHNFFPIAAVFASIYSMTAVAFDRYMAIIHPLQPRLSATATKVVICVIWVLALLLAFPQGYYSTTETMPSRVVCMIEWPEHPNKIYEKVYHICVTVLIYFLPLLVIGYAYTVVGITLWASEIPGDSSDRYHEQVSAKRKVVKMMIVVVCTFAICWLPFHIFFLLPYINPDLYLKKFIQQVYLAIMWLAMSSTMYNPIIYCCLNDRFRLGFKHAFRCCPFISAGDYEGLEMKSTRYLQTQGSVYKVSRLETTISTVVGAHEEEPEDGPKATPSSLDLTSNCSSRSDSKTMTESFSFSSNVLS

`NC(=O)[C@H](Cc1ccccc1)NC(=O)[C@H](Cc1c[nH]c2ccccc12)NC(=O)OCc1ccccc1` (Cbz-Trp-Phe-NH2) showed an IC50 on Substance-P receptor of 9.3 µM. In other words, the single-digit micromolar range.

With `O=C(NCCc1ccccc1)C1(Cc2ccccc2)CCc2ccc(Cc3ccccc3)cc21` (stereo unspecified), the IC50 at Neuromedin-K receptor turned out to be 3 µM; at Substance-P receptor it was 2.4 µM.

`CC(C)(C)CNC(=O)C1(Cc2ccccc2)CCc2ccc(Cc3ccccc3)cc21` (stereo unspecified) gave a 50% inhibitory concentration (IC50) at Neuromedin-K receptor of 5.2 µM.

As to `COC(=O)C1(Cc2ccccc2)CCc2ccc(Cc3ccccc3)cc21` (stereo unspecified), the results for the IC50 on Neuromedin-K receptor and at Substance-P receptor were 8 µM and 3 µM, respectively.
